Results as given in ChEMBL document CHEMBL1255229, “Novel antimicrobial peptides that exhibit activity against select agents and other drug resistant bacteria” (2010).
≈ marks a conversion by molar mass, not a printed value. Starred links: 1 amine or outer side, 2 acyl side, 3 side chain; linkers in the order of their positions; H or OH if unused. Non-standard residues stand in square brackets, D forms with d. Residues, ends and D or L forms follow the SMILES beside them. X1 = O=C([C@@H]1CN([*:1])C2CCCCC21)[*:2]; Tic = O=C(O)[C@@H]1Cc2ccccc2CN1; Orn = NCCC[C@H](N)C(=O)O; Dab = NCC[C@H](N)C(=O)O; Ahx = NCCCCCC(=O)O; βAla = NCCC(=O)O

Legend:
Type in all cases: functional
[1] = system: Burkholderia mallei; experiment: Antimicrobial activity against Burkholderia mallei ATCC 23444 after 24 hrs; settings: ATCC 23444, 24 h
[2] = system: Brucella melitensis; experiment: Antimicrobial activity against Brucella melitensis 16 M after 24 hrs
[3] = system: Burkholderia pseudomallei; experiment: Antimicrobial activity against Burkholderia pseudomallei BURK003(1026b) after 24 hrs
[4] = system: Francisella tularensis; experiment: Antimicrobial activity against Francisella tularensis SCHU-S4 after 24 hrs; settings: SCHU-S4, 24 h
[5] = system: Brucella suis; experiment: Antimicrobial activity against Brucella suis ATCC 23445 after 24 hrs; settings: ATCC 23445, 24 h
[6] = system: Acinetobacter baumannii; experiment: Antimicrobial activity against Acinetobacter baumannii WRAIR after 24 hrs
[7] = system: Acinetobacter baumannii; experiment: Antimicrobial activity against Acinetobacter baumannii ATCC 19606 after 24 hrs; settings: ATCC 19606 = CIP 70.34 = JCM 6841, 24 h
[8] = system: Bacillus anthracis; experiment: Antimicrobial activity against Bacillus anthracis Ames after 24 hrs
[9] = system: Brucella abortus; experiment: Antimicrobial activity against Brucella abortus 2308 after 24 hrs; settings: Brucella abortus, 2308, 24 h
[10] = system: Yersinia pestis; experiment: Antimicrobial activity against Yersinia pestis CO92 after 24 hrs; settings: CO92, 24 h
[11] = system: Staphylococcus aureus; experiment: Antimicrobial activity against methicillin-resistant Staphylococcus aureus ATCC 33591 after 24 hrs; settings: ATCC 33591, 24 h

SMILES	MIC [1] [µM]	MIC [2] [µM]	MIC [3] [µM]	MIC [4] [µM]	MIC [5] [µM]	MIC [6] [µM]	MIC [7] [µM]	MIC [8] [µM]	MIC [9] [µM]	MIC [10] [µM]	MIC [11] [µM]
CC(=O)NCC(=O)N[C@@H](Cc1ccccc1)C(=O)N1Cc2ccccc2C[C@H]1C(=O)N1C[C@@H](C(=O)NCC(=O)N[C@@H](CCCCN)C(=O)N2Cc3ccccc3C[C@H]2C(=O)N2C[C@@H](C(=O)NCC(=O)N[C@@H](Cc3ccccc3)C(=O)N3Cc4ccccc4C[C@H]3C(=O)N3C[C@@H](C(=O)NCC(=O)N[C@@H](CCCCN)C(=O)N4Cc5ccccc5C[C@H]4C(=O)NCCCCCC(=O)N[C@@H](CCCCN)C(=O)N[C@@H](CCCCN)C(=O)N[C@@H](CCCCN)C(=O)N[C@@H](CCCCN)C(N)=O)C4CCCCC43)C3CCCCC32)C2CCCCC21 (stereo not given in full) (Ac-GF[Tic][X1]GK[Tic][X1]GF[Tic][X1]GK[Tic][Ahx]KKKK-NH2)	196 (≈ 501 µg/mL)	196 (≈ 501 µg/mL)	196 (≈ 501 µg/mL)	196 (≈ 501 µg/mL)	196 (≈ 501 µg/mL)	6.1 (≈ 15.6 µg/mL)	3 (≈ 7.66 µg/mL)	48.9 (≈ 125 µg/mL)	196 (≈ 501 µg/mL)	48.9 (≈ 125 µg/mL)	196 (≈ 501 µg/mL)
CC(=O)NCC(=O)N[C@@H](Cc1ccccc1)C(=O)N1Cc2ccccc2C[C@H]1C(=O)N1C[C@@H](C(=O)NCC(=O)N[C@@H](CCCCN)C(=O)N2Cc3ccccc3C[C@H]2C(=O)N2C[C@@H](C(=O)NCC(=O)N[C@@H](Cc3ccccc3)C(=O)N3Cc4ccccc4C[C@H]3C(=O)N3C[C@@H](C(=O)NCC(=O)N[C@@H](CCCCN)C(=O)N4Cc5ccccc5C[C@H]4C(=O)N[C@@H](CCCN)C(=O)N[C@@H](CCCN)C(=O)N[C@@H](CCCN)C(=O)N[C@@H](CCCN)C(N)=O)C4CCCCC43)C3CCCCC32)C2CCCCC21 (stereo not given in full) (Ac-GF[Tic][X1]GK[Tic][X1]GF[Tic][X1]GK[Tic][Orn][Orn][Orn][Orn]-NH2)	209 (≈ 498 µg/mL)	104 (≈ 248 µg/mL)	209 (≈ 498 µg/mL)	105 (≈ 250 µg/mL)	13 (≈ 31 µg/mL)	6.5 (≈ 15.5 µg/mL)	6.5 (≈ 15.5 µg/mL)	0.81 (≈ 1.93 µg/mL)	209 (≈ 498 µg/mL)	26.2 (≈ 62.5 µg/mL)	52.4 (≈ 125 µg/mL)
CC(=O)NCC(=O)N[C@@H](Cc1ccccc1)C(=O)N1Cc2ccccc2C[C@H]1C(=O)N1C[C@@H](C(=O)NCC(=O)N[C@@H](CCCCN)C(=O)N2Cc3ccccc3C[C@H]2C(=O)N2C[C@@H](C(=O)NCC(=O)N[C@@H](Cc3ccccc3)C(=O)N3Cc4ccccc4C[C@H]3C(=O)N3C[C@@H](C(=O)NCC(=O)N[C@@H](CCCCN)C(=O)N4Cc5ccccc5C[C@H]4C(=O)NCCC(=O)N[C@@H](CCCCN)C(=O)N[C@@H](CCCCN)C(=O)N[C@@H](CCCCN)C(=O)N[C@@H](CCCCN)C(N)=O)C4CCCCC43)C3CCCCC32)C2CCCCC21 (stereo not given in full) (Ac-GF[Tic][X1]GK[Tic][X1]GF[Tic][X1]GK[Tic][βAla]KKKK-NH2)	199 (≈ 500 µg/mL)	199 (≈ 500 µg/mL)	199 (≈ 500 µg/mL)	199 (≈ 500 µg/mL)	199 (≈ 500 µg/mL)	6.2 (≈ 15.6 µg/mL)	6.2 (≈ 15.6 µg/mL)	12.4 (≈ 31.2 µg/mL)	199 (≈ 500 µg/mL)	199 (≈ 500 µg/mL)	199 (≈ 500 µg/mL)
CC(=O)NCC(=O)N[C@@H](Cc1ccccc1)C(=O)N1Cc2ccccc2C[C@H]1C(=O)N1C[C@@H](C(=O)NCC(=O)N[C@@H](CCCNC(=N)N)C(=O)N2Cc3ccccc3C[C@H]2C(=O)N2C[C@@H](C(=O)NCC(=O)N[C@@H](Cc3ccccc3)C(=O)N3Cc4ccccc4C[C@H]3C(=O)N3C[C@@H](C(=O)NCC(=O)N[C@@H](CCCNC(=N)N)C(=O)N4Cc5ccccc5C[C@H]4C(=O)N[C@@H](CCCNC(=N)N)C(=O)N[C@@H](CCCNC(=N)N)C(=O)N[C@@H](CCCNC(=N)N)C(=O)N[C@@H](CCCNC(=N)N)C(N)=O)C4CCCCC43)C3CCCCC32)C2CCCCC21 (stereo not given in full) (Ac-GF[Tic][X1]GR[Tic][X1]GF[Tic][X1]GR[Tic]RRRR-NH2)	192 (≈ 501 µg/mL)	192 (≈ 501 µg/mL)	192 (≈ 501 µg/mL)	192 (≈ 501 µg/mL)	192 (≈ 501 µg/mL)	24 (≈ 62.6 µg/mL)	5.98 (≈ 15.6 µg/mL)	5.98 (≈ 15.6 µg/mL)	192 (≈ 501 µg/mL)	192 (≈ 501 µg/mL)	96 (≈ 250 µg/mL)
CC(=O)NCC(=O)N[C@@H](Cc1ccccc1)C(=O)N1Cc2ccccc2C[C@H]1C(=O)N1C[C@@H](C(=O)NCC(=O)N[C@@H](CCN)C(=O)N2Cc3ccccc3C[C@H]2C(=O)N2C[C@@H](C(=O)NCC(=O)N[C@@H](Cc3ccccc3)C(=O)N3Cc4ccccc4C[C@H]3C(=O)N3C[C@@H](C(=O)NCC(=O)N[C@@H](CCN)C(=O)N4Cc5ccccc5C[C@H]4C(=O)N[C@@H](CCN)C(=O)N[C@@H](CCN)C(=O)N[C@@H](CCN)C(=O)N[C@@H](CCN)C(N)=O)C4CCCCC43)C3CCCCC32)C2CCCCC21 (stereo not given in full) (Ac-GF[Tic][X1]G[Dab][Tic][X1]GF[Tic][X1]G[Dab][Tic][Dab][Dab][Dab][Dab]-NH2)	220 (≈ 500 µg/mL)	220 (≈ 500 µg/mL)	220 (≈ 500 µg/mL)	220 (≈ 500 µg/mL)	220 (≈ 500 µg/mL)	3.4 (≈ 7.73 µg/mL)	3.4 (≈ 7.73 µg/mL)	6.8 (≈ 15.5 µg/mL)	220 (≈ 500 µg/mL)	220 (≈ 500 µg/mL)	220 (≈ 500 µg/mL)
